Biological target: human NLRP3 (Homo sapiens, UniProt Q96P20)
Assay: Scintillation Proximity (SPA) NLRP3 Assay, displacement of 3H-MCC950
Format: binding
Details: displacement of 3H-MCC950 from human NLRP3
Description: Improved NLRP3 binding correlates with increased affinity for NLRP3 protein and, by extension, increased ability to interfere with its function.
SPA experiments were conducted in a total volume of 20 μL assay buffer containing 20 mM HEPES pH 7.5, 150 mM NaCl, 5 mM MgCl2, 0.01% (v/v) Tween-20, 0.01% (w/v) bovine serum albumin (BSA) and 100 μM of adenosine diphosphate (ADP). A human NLRP3 protein (350 nM) (see, e.g., Sharif et al., Nature (2019) 570:338-343; Hochheiser et al., Nature (2022) 604:184-189; Adreeva et al., Cell (2021) 184:6299-6312; Wang et al., J Exp. Med. (2021) 219:e20211147) was incubated with various concentration of compounds in 5% dimethyl sulfoxide (DMSO) final for 15 minutes at room temperature in a white half-area 96 well OptiPlate (PerkinElmer #6002290) before adding 125 nM final of 3H-MCC950. After the addition of radiolabeled MCC950, the plate was incubated for 60 minutes at room temperature before adding 0.25 mg/ml of copper-coated polyvinyltoluene SPA beads (PerkinElmer #RPNQ0095). The plate was then transferred to a microplate counter (PerkinElmer 2450 Microbeta) to collect binding data. Binding data was analyzed 6 hrs post-PVT bead addition to allow sufficient time to reach equilibrium. Specific binding was calculated from averaged duplicates by subtracting signal from wells without NLRP3 protein.
SPA NLRP3 IC50 assay results are provided in Table B. “A” activity=<1 uM; “B” activity=1-10 uM; “C” activity=>10-50 uM; “D” activity=>50 uM-100 uM; and “E” activity=>100 uM.

human NLRP3, sequence (Q96P20 whole entry): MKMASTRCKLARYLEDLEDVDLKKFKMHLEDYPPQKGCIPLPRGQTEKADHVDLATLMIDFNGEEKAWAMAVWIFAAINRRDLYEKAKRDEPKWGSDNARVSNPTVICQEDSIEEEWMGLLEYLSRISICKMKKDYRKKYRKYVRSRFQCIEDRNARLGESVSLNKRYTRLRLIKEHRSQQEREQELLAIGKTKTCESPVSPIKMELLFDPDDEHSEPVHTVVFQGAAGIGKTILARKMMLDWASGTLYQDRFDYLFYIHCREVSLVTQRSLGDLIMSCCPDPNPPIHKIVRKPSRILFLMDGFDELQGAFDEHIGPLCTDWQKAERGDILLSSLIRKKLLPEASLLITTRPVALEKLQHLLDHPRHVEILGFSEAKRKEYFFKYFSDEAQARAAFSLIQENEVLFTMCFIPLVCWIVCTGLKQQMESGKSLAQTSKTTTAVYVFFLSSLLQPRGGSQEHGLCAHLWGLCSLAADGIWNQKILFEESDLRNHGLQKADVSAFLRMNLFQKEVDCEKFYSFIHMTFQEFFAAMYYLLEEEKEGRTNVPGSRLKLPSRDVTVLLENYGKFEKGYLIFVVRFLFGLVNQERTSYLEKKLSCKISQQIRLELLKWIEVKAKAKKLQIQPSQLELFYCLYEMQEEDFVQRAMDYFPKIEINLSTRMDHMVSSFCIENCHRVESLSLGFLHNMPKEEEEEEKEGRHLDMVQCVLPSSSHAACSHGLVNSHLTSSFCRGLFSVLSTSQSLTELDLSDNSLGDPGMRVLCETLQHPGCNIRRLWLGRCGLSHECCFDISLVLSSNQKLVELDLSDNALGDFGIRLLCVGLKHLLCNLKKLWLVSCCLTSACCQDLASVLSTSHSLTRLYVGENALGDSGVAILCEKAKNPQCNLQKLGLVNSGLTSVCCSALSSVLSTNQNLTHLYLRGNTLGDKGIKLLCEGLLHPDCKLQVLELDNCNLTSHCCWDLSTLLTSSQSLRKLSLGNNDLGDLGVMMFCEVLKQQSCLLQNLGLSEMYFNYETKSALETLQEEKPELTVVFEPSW

Row | IC50 (Table B, activity class) [µM] | IC50 (Table C) [µM] | SMILES
1 | 1 to 10 |  | C[C@@H]1CCN(c2nnn[nH]2)C[C@@H](NC(=O)N(C)c2ccc(C3CC3)c(F)c2)C1 (single isomer, unassigned) [23B*]
2 | 10 to 50 |  | C[C@H]1CCN(c2nnn[nH]2)C[C@H](NC(=O)N(C)c2ccc(C3CC3)c(F)c2)C1 (single isomer, unassigned) [23C*]
3 | 1 to 10 |  | C[C@H]1CCN(c2nnn[nH]2)C[C@@H](NC(=O)N(C)c2ccc(C3CC3)c(F)c2)C1 (single isomer, unassigned) [23D*]
4 | 1 to 10 |  | C[C@@H]1CCN(c2nnn[nH]2)C[C@@H](NC(=O)N(C)c2ccc(OC(F)(F)F)cc2F)C1 (single isomer, unassigned) [24B*]
5 | 10 to 50 |  | C[C@H]1CCN(c2nnn[nH]2)C[C@H](NC(=O)N(C)c2ccc(OC(F)(F)F)cc2F)C1 (single isomer, unassigned) [24C*]
6 | 1 to 10 |  | C[C@H]1CCN(c2nnn[nH]2)C[C@@H](NC(=O)N(C)c2ccc(OC(F)(F)F)cc2F)C1 (single isomer, unassigned) [24D*]
7 | 1 to 10 |  | C[C@@H]1CCN(c2nnn[nH]2)C[C@@H](NC(=O)N(C)c2ccc(OC(F)(F)F)c(OC(F)F)c2)C1 (single isomer, unassigned) [25B*]
8 | 1 to 10 |  | C[C@H]1CCN(c2nnn[nH]2)C[C@H](NC(=O)N(C)c2ccc(OC(F)(F)F)c(OC(F)F)c2)C1 (single isomer, unassigned) [25C*]
9 | 10 to 50 |  | C[C@H]1CCN(c2nnn[nH]2)C[C@@H](NC(=O)N(C)c2ccc(OC(F)(F)F)c(OC(F)F)c2)C1 (single isomer, unassigned) [25D*]
10 | 1 to 10 |  | C[C@@H]1CCN(c2nnn[nH]2)C[C@@H](NC(=O)N(C)c2ccc(OC(F)(F)F)c(F)c2F)C1 (single isomer, unassigned) [26B*]
11 | > 100 |  | C[C@H]1CCN(c2nnn[nH]2)C[C@H](NC(=O)N(C)c2ccc(OC(F)(F)F)c(F)c2F)C1 (single isomer, unassigned) [26C*]
12 | 10 to 50 |  | C[C@H]1CCN(c2nnn[nH]2)C[C@@H](NC(=O)N(C)c2ccc(OC(F)(F)F)c(F)c2F)C1 (single isomer, unassigned) [26D*]
13 | 1 to 10 | 1.4 | C[C@@H]1CCN(c2nnn[nH]2)C[C@H](NC(=O)Nc2ccc(Cl)cc2F)C1 (single isomer, unassigned) [27A*]
14 | 1 to 10 |  | C[C@@H]1CCN(c2nnn[nH]2)C[C@@H](NC(=O)Nc2ccc(Cl)cc2F)C1 (single isomer, unassigned) [27B*]
15 | 10 to 50 |  | C[C@H]1CCN(c2nnn[nH]2)C[C@H](NC(=O)Nc2ccc(Cl)cc2F)C1 (single isomer, unassigned) [27C*]
16 | > 100 |  | C[C@H]1CCN(c2nnn[nH]2)C[C@@H](NC(=O)Nc2ccc(Cl)cc2F)C1 (single isomer, unassigned) [27D*]
17 | 1 to 10 |  | C[C@@H]1CCN(c2nnn[nH]2)C[C@H](NC(=O)N(C)c2ccc(Cl)cn2)C1 (single isomer, unassigned) [28A*]
18 | 50 to 100 |  | C[C@@H]1CCN(c2nnn[nH]2)C[C@@H](NC(=O)N(C)c2ccc(Cl)cn2)C1 (single isomer, unassigned) [28B*]
19 | 50 to 100 |  | C[C@H]1CCN(c2nnn[nH]2)C[C@H](NC(=O)N(C)c2ccc(Cl)cn2)C1 (single isomer, unassigned) [28C*]
20 | 10 to 50 |  | C[C@H]1CCN(c2nnn[nH]2)C[C@@H](NC(=O)N(C)c2ccc(Cl)cn2)C1 (single isomer, unassigned) [28D*]
21 | 1 to 10 |  | C[C@@H]1CCN(c2nnn[nH]2)C[C@H](NC(=O)N(C)c2ccc(Cl)nc2)C1 (single isomer, unassigned) [29A*]
22 | 1 to 10 |  | C[C@@H]1CCN(c2nnn[nH]2)C[C@@H](NC(=O)N(C)c2ccc(Cl)nc2)C1 (single isomer, unassigned) [29B*]

Row | IC50 (Table B, activity class) [µM] | IC50 (Table C) [µM] | SMILES
23 | 50 to 100 |  | C[C@H]1CCN(c2nnn[nH]2)C[C@H](NC(=O)N(C)c2ccc(Cl)nc2)C1 (single isomer, unassigned) [29C*]
24 | 10 to 50 |  | C[C@H]1CCN(c2nnn[nH]2)C[C@@H](NC(=O)N(C)c2ccc(Cl)nc2)C1 (single isomer, unassigned) [29D*]
25 | > 100 |  | C[C@@H]1CCN(c2nnn[nH]2)C[C@H](NC(=O)N(C)c2ncc(C(F)(F)F)cn2)C1 (single isomer, unassigned) [30A*]
26 | > 100 |  | C[C@@H]1CCN(c2nnn[nH]2)C[C@@H](NC(=O)N(C)c2ncc(C(F)(F)F)cn2)C1 (single isomer, unassigned) [30B*]
27 | > 100 |  | C[C@H]1CCN(c2nnn[nH]2)C[C@H](NC(=O)N(C)c2ncc(C(F)(F)F)cn2)C1 (single isomer, unassigned) [30C*]
28 | > 100 |  | C[C@H]1CCN(c2nnn[nH]2)C[C@@H](NC(=O)N(C)c2ncc(C(F)(F)F)cn2)C1 (single isomer, unassigned) [30D*]
29 | 10 to 50 |  | C[C@@H]1CCN(c2nnn[nH]2)C[C@H](NC(=O)N(C)c2cnc(C(F)(F)F)nc2)C1 (single isomer, unassigned) [31A*]
30 | 10 to 50 |  | C[C@@H]1CCN(c2nnn[nH]2)C[C@@H](NC(=O)N(C)c2cnc(C(F)(F)F)nc2)C1 (single isomer, unassigned) [31B*]
31 | 10 to 50 |  | CC1CCN(c2nnn[nH]2)CC(NC(=O)N(C)c2cnc(C(F)(F)F)nc2)C1 (single isomer, unassigned) [31C*]
32 | 10 to 50 |  | C[C@H]1CCN(c2nnn[nH]2)C[C@@H](NC(=O)N(C)c2cnc(C(F)(F)F)nc2)C1 (single isomer, unassigned) [31D*]
33 | 50 to 100 |  | C[C@@H]1CCN(c2nnn[nH]2)C[C@@H](NC(=O)N(C)c2cnc(C(F)(F)F)cn2)C1 (single isomer, unassigned) [32B*]
34 | 50 to 100 |  | C[C@H]1CCN(c2nnn[nH]2)C[C@H](NC(=O)N(C)c2cnc(C(F)(F)F)cn2)C1 (single isomer, unassigned) [32C*]
35 | 50 to 100 |  | C[C@H]1CCN(c2nnn[nH]2)C[C@@H](NC(=O)N(C)c2cnc(C(F)(F)F)cn2)C1 (single isomer, unassigned) [32D*]
36 | 10 to 50 |  | C[C@@H]1CCN(c2nnn[nH]2)C[C@H](NC(=O)N(C)c2ccc(C(F)(F)F)nn2)C1 (single isomer, unassigned) [33A*]
37 | 50 to 100 |  | C[C@@H]1CCN(c2nnn[nH]2)C[C@@H](NC(=O)N(C)c2ccc(C(F)(F)F)nn2)C1 (single isomer, unassigned) [33B*]
38 | 50 to 100 |  | C[C@H]1CCN(c2nnn[nH]2)C[C@H](NC(=O)N(C)c2ccc(C(F)(F)F)nn2)C1 (single isomer, unassigned) [33C*]
39 | 50 to 100 |  | C[C@H]1CCN(c2nnn[nH]2)C[C@@H](NC(=O)N(C)c2ccc(C(F)(F)F)nn2)C1 (single isomer, unassigned) [33D*]
40 | 1 to 10 |  | C[C@@H]1CCN(c2nnn[nH]2)C[C@@H](NC(=O)N(C)c2ccc(OC(F)F)c(F)c2F)C1 (single isomer, unassigned) [40B*]
41 | 10 to 50 |  | C[C@H]1CCN(c2nnn[nH]2)C[C@H](NC(=O)N(C)c2ccc(OC(F)F)c(F)c2F)C1 (single isomer, unassigned) [40C*]
42 | 1 to 10 |  | C[C@@H]1CCN(c2nnn[nH]2)C[C@@H](NC(=O)N(C)c2c(F)cc(OC(F)(F)F)cc2F)C1 (single isomer, unassigned) [41B*]
43 | 50 to 100 |  | C[C@H]1CCN(c2nnn[nH]2)C[C@H](NC(=O)N(C)c2c(F)cc(OC(F)(F)F)cc2F)C1 (single isomer, unassigned) [41C*]
44 | 1 to 10 |  | C[C@H]1CCN(c2nnn[nH]2)C[C@@H](NC(=O)N(C)c2c(F)cc(OC(F)(F)F)cc2F)C1 (single isomer, unassigned) [41D*]

— patent publication US20260008768A1, “UREA DERIVATIVES FOR INHIBITING NLRP3 AND USES THEREOF” (VENTUS THERAPEUTICS U.S., INC., priority 2023, published 2026)
